Assay [1] concerns CD4+ T cell blasts. In words: T cell blast proliferation in co-culture with MSCs (3H-thymidine incorporation). Format: cell-based, mouse. The settings on record: for induction of immunosuppression by MSCs with recombinant cytokines: 20 ng/ml each, MSC + T cell blasts or MSC + A1.1 cells, 1:20; for T cell proliferation after MSC treatment with low-concentration cytokines: 2 ng/ml each, 12 hr, then 1:20 MSC:T cells. As to the method:
FIG. 1. is a graph showing that immunosuppression by MSCs is induced by proinflammatory cytokines. Cloned MSCs were supplemented with the indicated combinations of recombinant cytokines (20 ng/ml each) for 8 hours, then co-cultured with CD4+ T cell blasts at a 1:20 ratio (MSC:T cells), and proliferation assessed after an additional 8 hours. Values represent means±SD of five wells from a representative of three experiments with different clones. * p<0.001.
(§1) FIGS. 9A, 9B, 9C, 9D, 9E, 9F and 9G. (FIG. 9A). Cloned MSCs were first treated with the indicated combinations of recombinant cytokines IFNγ, TNFα, IL-17A (2 ng/ml each) for 12 hr, then cocultured with CD4^+ T cell blasts at a 1:20 ratio (MSC:T cells), and proliferation was assessed by 3H-thymidine incorporation after an additional 12 hr. (FIG. 9B). The mRNA expression of IL-17 receptor family members in MSCs or Raw 264.7 (Macrophages) were examined by RT-PCR. NC: No RT. (FIG. 9C). Surface expression of IL-17RA was detected by immunofluoresence or flow cytometry in cloned MSCs. (FIGS. 9D and 9E). MSCs were first treated with IFNγ and TNFα with or without IL-17A (10 ng/ml), IFNγ and TNFα were supplemented at different cytokine concentrations, for 12 hr, and then cocultured with CD4^+ T cell blasts (FIG. 9D) or T cell hybridoma A1.1 cells (FIG. 9E) at a ratio of 1:20 for 12 hr. T cell proliferation was measured by 3H-Tdr incorporation. (FIG. 9F). MSCs were first treated with IFNγ and TNFα (2 ng/ml) with graded concentrations of IL-17A, for 12 hr, and then cocultured with T cell hybridoma A1.1 cells at a ratio of 1:10 for 12 hr. T cell proliferation was measured by 3H-thymidine incorporation. (FIG. 9G). MSCs were cocultured with fresh C57BL/6 splenocytes plus anti-CD3, anti-CD28, and antibodies against IL-17A, at a 1:20 or 1:40 ratio (MSCs:splenocytes), for 48 hr, and then cell proliferation was assessed by 3H-thymidine incorporation. Proliferation values represent means±SEM of three wells from a representative of three experiments.
T cell blasts were generated from CD4^+ T cells purified by negative selection with […] T cell subset isolation kits (R&D Systems). Cells (1×10^6 cells/ml) were activated by plastic-bound anti-CD3 and soluble anti-CD 28 for 48 hours, then cultured with IL-2 (200 U/ml) alone for 48 hours. All T cell cultures were maintained in RPMI-1640 medium supplemented with 10% heat-inactivated FBS, 2 mM glutamine, 100 U/ml penicillin, 100 μ·g/ml streptomycin, and […] (complete medium).
Since most reported studies of immunosuppression by MSCs are based on their effects on T cell proliferation and cytokine production, the effect of MSCs was first examined on the IL-2-driven proliferation of T cell blasts. Fresh CD4^+ T cell blasts were generated from splenocytes by activation with anti-CD3 followed by expansion with IL-2 for several days (Devadas, et al. (2006) Immunity 25:237-247; Radvanyi, et al. (1996) Cell Immunol. 170:260-273). T cell blasts were added at a 1:20 ratio (MSC:T cells) along with IL-2 (200 U/ml). Cell proliferation was assessed by ^3H-Tdr incorporation after 8 hours. […] MSCs also had no effect on the proliferation of T hybridoma A1.1 cells. These T cells blasts and T hybridoma cells, however, produce no cytokines unless reactivated through the TCR (Fotedar, et al. (1985) J. Immunol. 135(5):3028-33). Thus, in the absence of T cell cytokines, MSCs were unable to suppress T cell proliferation.
The effect of IFNγ was then tested directly by adding isolated recombinant IFNγ (20 ng/ml) instead of activated splenocyte supernatant to the mixed co-cultures of MSC+ T cell blasts or MSC+A1.1 cells. […] Therefore, induction of the immunosuppressive function of MSCs by anti-CD3-activated splenocyte supernatant may be due to IFNγ acting in concert with either TNFα; IL-1α; or IL-1β on the MSCs. […]

For assay [2], the system named is splenocytes. The assay is described as follows: Anti-CD3-activated splenocyte proliferation in co-culture with MSCs. Format: cell-based, mouse. The settings on record: for splenocyte proliferation in MSC co-culture with iNOS inhibitor: MSCs + splenocytes + anti-CD3; for effect on immunosuppression by MSCs: indomethacin 10 μM, anti-IL-10 20 μg/ml, anti-TGFβ 20 μg/ml, 1-MT 1 mM. As to the method:
as §1, with “(FIG. 9A).” left out
To examine the possibility that cytokines induce the immunosuppressive capacity of MSCs, these culture conditions were reproduced by combining MSCs and fresh splenocytes at graded ratios in the presence of anti-CD3. […] The immunosuppressive capacity of MSC clones generated from different mouse strains was also examined.
To identify the mechanism through which immunosuppression by cytokine-exposed MSCs is effected, the response of anti-CD3-activated splenocytes co-cultured with MSCs (1:20, MSC:splenocytes) in a […] system was examined in various configurations.
Nitric oxide (NO) at high concentrations is known to inhibit T cell responses. It diffuses quickly from its source, but the concentration of the active form drops off within about 100 μm.
Proliferation assay—To assay T cell proliferation, 0.5 μCi of 3H-thymidine was added to each well of 96-well plates 6 hr before termination of the cultures by freezing. Plates were then thawed, cells were harvested, and incorporated 3H-Tdr was assessed with a Wallac Microbeta scintillation counter (Perkin-Elmer, Waltham, MA).

In assay [3] the test system is F1 (C57BL/6xC3H) mice. The assay is described as follows: Graft-versus-host disease (GvHD) model.
Protocol: Recipient mice (C57BL/6xC3H, F1) were lethally irradiated and injected i.v. with C57BL/6 bone marrow cells plus spleenocytes. On days 3 and 7 after bone marrow transplantation, recipients were administered with the indicated MSCs. For some wild-type MSC groups, L-NMMA, anti-IFNγ or a 3-antibody cocktail against TNFα, IL-1α, and IL-1β, (3 Abs) were injected i.p. Survival was monitored daily for 12 weeks.
GvHD Induction and Modulation by MSCs. C57BL/6×C3H F1 mice at 8-weeks old were lethally irradiated (13 Gy) and after 24 hours were infused by tail vein injection with nucleated bone marrow cells (5×10^6) and splenocytes (5×10^6) isolated from C57BL/6 parent mice. On days 3 and 7 following bone marrow transplantation, the recipients were administrated with 0.5×10^6 MSCs derived from C57BL/6 wild-type, IFNγ R1^−/−, or iNOS^−/− mice via the tail vein. Some wild-type MSC groups were also injected i.p. with the iNOS inhibitor, NG-monomethyl L-arginine (L-NMMA, 500 μg/mouse), anti-IFNγ (400 μg/mouse), or a cocktail of three antibodies against TNFα, IL-1α and IL-1β (200 μg each/mouse) daily for 7 days starting immediately after the first MSC administration. As negative controls, the F1 mice were injected with F1 bone marrow cells. Mice were observed daily for GvHD signs (wasting, ruffled hair, and hunched back) and euthanized upon becoming moribund, thus marking survival time. […]
The test system of assay [4] is peripheral blood mononuclear cell. In words: Peripheral blood mononuclear cell proliferation with human MSCs. It counts as cell-based. The settings on record: side-by-side comparison mouse and human MSCs. As to the method:
In the present study, with T cell activation or when exogenous inflammatory cytokines are added, the T cells first enter cell cycle arrest and then die within 24 hours. It was also observed that this apoptosis was dependent on NO, since T cell apoptosis was not observed when iNOS inhibitors were used. Apoptosis was also absent when iNOS^−/− or IFNγ R1^−/− MSCs were used. Therefore, NO-induced cell cycle arrest and apoptosis of T cells are part of the mechanism of immunosuppression mediated by inflammatory cytokine-activated MSCs. Differences between species in inflammatory cytokine-induced expression of iNOS has been noted in macrophages (Schneemann & Schoedon. 2002) Nat. Immunol. 3(2):102). […] Thus, the roles of IDO and NO in the inhibition of T cell proliferation by MSCs from mouse and human were analyzed in a side-by-side comparison.

In assay [5] the test system is iNOS. In words: iNOS mRNA in MSCs by real-time PCR. Particulars: 20 ng/ml each. Format: cell-based, mouse. As to the method:
Real-Time PCR. RNA was isolated from cell pellets using an RNEASY Mini Kit. First-strand cDNA synthesis was performed using SENSISCRIPT RT Kit with random hexamer primers (all kits from Qiagen, Valencia, Calif.). mRNA of the genes of interest were quantified by real-time PCR (MX-4000 from Stratagene, La Jolla, Calif.) using SYBR Green Master Mix (Applied Biosystems, Foster City, Calif.). Total amount of mRNA was normalized to endogenous β-actin mRNA. Primers sequences for iNOS were: forward, 5′-CAGCTGGGCTGTACAAACCTT-3′ (SEQ ID NO:1); reverse, 5′-CATTGGAAGTGAAGCGTTTCG-3′ (SEQ ID NO:2). Other primers were from the RT2 PROFILER™ PCR Array Mouse Chemokines & Receptors kit (Superarray, Frederick, Md.).
Accordingly, it was contemplated that MSCs could upregulate their expression of iNOS and produce NO after exposure to these cytokines. […] […] At 12 hours post-stimulation, the level of iNOS mRNA was more than 7 times greater than β actin message, indicative of extremely high expression.

For “GM-CSF: Granulocyte-macrophage colony-stimulating factor”, the “induction of immunosuppression by MSCs with recombinant cytokines” value (from here on “induction of immunosuppression by MSCs”) in assay [1] is given as “no effect”. Take `COC(=O)[C@@H](N)CCCNC(=N)N[N+](=O)[O-]` [L-NAME]: the “splenocyte proliferation in MSC co-culture with iNOS inhibitor” value in assay [2] is given as “same effect”. For the molecule `CNC(=N)NCCC[C@H](N)C(=O)O` [L-NMMA, N G-monomethyl-L-arginine], the “effect on protection by MSC (histology)” value in assay [3] (14 days after bone marrow transplantation) was “almost completely reversed”. The “effect on MSC-mediated protection from GvHD (survival)” value in assay [3] (i.p. daily for 7 days after wild-type MSC infusion) is given as “significant reversal”. In addition, the “splenocyte proliferation in MSC co-culture with iNOS inhibitor” value in assay [2] is recorded as “completely restored”. Also, the “effect on immunosuppression by mouse MSCs” value in assay [2] (side-by-side comparison mouse and human MSCs) is “completely reversed”.

As for `COc1ccc2c(c1)c(CC(=O)O)c(C)n2C(=O)c1ccc(Cl)cc1` [indomethacin, Indomethacin], the “effect on immunosuppression by MSCs” value in assay [2] is on record as “no effect”. Regarding `Cn1cc(CC(N)C(=O)O)c2ccccc21` (racemic) [1-MT, 1-methyl-DL-tryptophan], the “effect on immunosuppression by MSCs” value in assay [2] is on record as “no effect”. In assay [4], the “effect on inhibition of peripheral blood mononuclear cell proliferation by human MSCs” value is “reversed”.

B1: IFNγ: recombinant mouse interferon-gamma (protein)
chain: HGTVIESLESLNNYFNSSGIDVEEKSLFLDIWRNWQKDGDMKILQSQIISFYLRLFEVLKDNQAISNNISVIESHLITTFFSNSKAKKDAFMSIAKFEVNNPQVQRQAFNELIRVVHQLLPESSLRKRKRSRC
For the molecule B1, the “iNOS mRNA upregulation in MSCs by recombinant cytokines” value in assay [5] is given as “ineffective”. In addition, in assay [1], the “T cell proliferation after MSC treatment with low-concentration cytokines” value is given as “cannot induce immunosuppression” and the “induction of immunosuppression by MSCs” value is recorded as “did not induce immunosuppression”.

B2: IFNβ: type I IFN, printed as IFNα or β (protein, UniProt P01575 22-182, looked up)
Interferon beta: INYKQLQLQERTNIRKCQELLEQLNGKINLTYRADFKIPMEMTEKMQKSYTAFAIQEMLQNVFLVFRNNFSSTGWNETIVVRLLDELHQQTVFLKTVLEEKQEERLTWEMSSTALHLKSYYWRVQRYLKLMKYNSYAWMVVRAEIFRNFLIIRRLTRNFQN
B2: the “MSC-mediated immunosuppression in MSC+splenocyte+anti-CD3 system” value in assay [2] is given as “strikingly inhibited”.

B3: TNFα: recombinant mouse tumor necrosis factor-alpha (protein)
chain: LRSSSQNSSDKPVAHVVANHQVEEQLEWLSQRANALLANGMDLKDNQLVVPADGLYLVYSQVLFKGQGCPDYVLLTHTVSRFAISYQEKVNLLSAVKSPCPKDTPEGAELKPWYEPIYLGGVFQLEKGDQLSAEVNLPKYLDFAESGQVYFGVIAL
For B3, the “iNOS mRNA upregulation in MSCs by recombinant cytokines” value in assay [5] is listed as “ineffective”. For the same molecule, the “T cell proliferation after MSC treatment with low-concentration cytokines” value in assay [1] is on record as “cannot induce immunosuppression”.

B4: IL-6: Interleukin-6 (protein, UniProt P08505 25-211, looked up)
Interleukin-6: FPTSQVRRGDFTEDTTPNRPVYTTSQVGGLITHVLWEIVEMRKELCNGNSDCMNNDDALAENNLKLPEIQRNDGCYQTGYNQEICLLKISSGLLEYHSYLEYMKNNLKDNKKDKARVLQRDTETLIHIFNQEVKDLHKIVLPTPISNALLTDKLESQKEWLRTKTIQFILKSLEEFLKVTLRSTRQT
For the molecule B4, in assay [1], the “induction of immunosuppression by MSCs” value is recorded as “no effect”.

(Values after patent US12156889B2, “Methods of administering mesenchymal stem cells activated by cytokines for enhancing immunosuppression” (Rutgers, The State University of New Jersey, priority 2012, dated 2024).)
